Measurements published in US8361779B2, “Buffer compounds” (Sachem, Inc., priority 2010, dated 2013).
“Also recorded” adds a separate entry of the source. Structures can show the parent of a compound that is named as a salt. Where two headings read alike, the source gives them in different places.

Experiments:
[1] = Precision measurements of pKa-values by pH titration; assay type: physicochemical; conditions: titrated with 100 mM KOH, six titrations, 25° C., ionic-strength 0.10 unless otherwise specified (b6); for Meas. pKa: 10 mM buffer, 80 mM KCl
Protocol: High purity analytical quality reagents are used in these studies: potassium chloride, potassium hydroxide, primary standard potassium acid phthalate (KAP, Baker), 18 meg-ohm deionized doubly-distilled water (CO2-free). […] They are dried in a vacuum oven at 50° C. for 18-24 hours and stored in a glass desiccator over P2O5. The only remaining impurities are inert water/solvent and traces of residual HCl or HBr. Most buffers are stable in atmospheric air; a few are somewhat hygroscopic. During the weighing of the buffer compounds, care is taken to prevent or minimize absorption of atmospheric moisture. Solutions containing 10 mM buffer and 80 mM KCl are carefully prepared using degassed, deionized water and standardized volumetric flasks. Six independent pH titrations are carried out for each buffer compound using 100 mM carbonate-free KOH that is carefully standardized against KAP.
The titrator is controlled and data collected by LabX Titration software, version 2.5. The titration cell is thermostatically controlled at 10.00±0.05° C., 25.00±0.05° C. or 40.00±±0.05° C. Temperatures are measured using a NIST-traceable mercury thermometer. Titrations are adjusted so that the endpoint is close to 5 mL delivery point of the burette. Incremental titrations are carried out with increment volume of 100 μl and with continuous stirring; the system is allowed to settle after each incremental addition (10-30 sec) before a reading is recorded. Accurate, NIST-traceable buffers (±0.001 pH unit) with accurately known values at 2, 4, 7, 10, 12 in the temperature range 10-40° C. are used (Oakton Instruments, Vernon Hills, Ill.). The electrode is calibrated at pH=2, 4, 10 and 12. The pH=7 buffer is independently measured. If the pH=7 measurement is accurate to ±0.002 pH unit, a titration is carried out; if not, the calibration is repeated. A pH calibration is carried out before each titration experiment. […]

[2] = pKa values quoted for buffers (buffer combinations table); assay type: physicochemical; conditions: for pKa: aqueous solution, read-out: pKa of buffer in cationic/anionic buffer combinations; for pKa / pKa of buffer in cationic/anionic buffer combinations: 25° C., ionic-strength 0.10 unless otherwise specified (b6)
Excerpt: pH is a measurement of solvated hydrogen-ion activity, which is directly related to hydrogen ion concentration: −log [H^+]. […] Activity is a defined thermodynamic term and is related to concentration. At low concentration and low ionic-strength, activity approximately equals concentration. […] Such pKa values are more applicable to practical conditions than are thermodynamic pKa values where μ≈0. […] Initially, approximately equal concentrations are chosen.

[3] = Est. pKa of Table 1 compounds (approximate measurements of pKa-values); assay type: physicochemical; conditions: for pKa: aqueous 80 mM KCl solution (pH titration with 100 mM KOH)
Protocol: This method is used when nonreactive impurities are >5% (HPLC), when reactive impurities are >1% (HPLC), when insufficient buffer is available or when noticeably poor curve fitting is seen in the above method. The experimental method is nearly the same as the above method, but the experimental volume-pH data are processed differently. Usually, only one or two titrations are carried out. The pKa is estimated to be the same as the pH of the titration curve at the half-equivalence point. The estimated pKa values can be as good at ±0.1 or as poor as ±0.5 depending on the nature and amounts of impurities.

[4] = tested on: Escherichia coli, Pseudomonas fluorescens, Pichia pastoris, Saccharyomyces cerevisiae; assay: Microbial growth-inhibition assays, all four organisms; assay type: cell-based; conditions: for comparative growth behaviour between buffers: all four organisms, pH 7.0; for order of growth inhibition at higher concentrations: standard buffers
Protocol: (§1) Microbial growth inhibition assays are carried out 96-well plates with well volume of 400 μL. In the present inventors' hands, data obtained in this manner are almost equivalent to that obtained in traditional shake flasks while data collection is more accurate and convenient. Two calibrated plate readers are used so that two plates, corresponding to a single organism, could be read at the same time. Each plate contains 80 cells for one organism and four buffers each at five concentrations (25, 50, 100, 225, 500 mM) with each buffer-concentration combination (20) being replicated four-fold. Each of these cells contained 50 μL of a fresh, calibrated cell culture plus 250 μL fresh sterile cell culture. In addition, each plate contained eight identical cells with 250 μL sterile, buffer-free growth medium plus 50 μL fresh cell culture and eight cells with 300 μL sterile growth medium and no organism. Microbial growth is measured by light-scattering/absorbance measurements at 600 nm every 15-60 minutes for the prescribed period. Every 15 minutes, each plate undergoes agitation/vibration which resuspends the organisms and promotes aeration; this process is repeated just prior to each absorbance reading. For each medium, six bottles of sterile media are prepared, one for each buffer concentration (0, 30, 60, 120, 270, 600 mM) so that when each is diluted in the plate, the desired concentrations will be obtained. The media components (see below), added buffer and water are mixed, and the pH is adjusted to the proper value. Each bottle of medium is heat sterilized (121° C., 15 psig, 20 minutes), cooled and, if necessary, the pH is readjusted to the proper value in a sterile fashion with 37% HCl or 50% NaOH.
Based upon prior experience with these organisms, a series of microbial growth measurements are carried out to determine optimal growth conditions. Four different media compositions unique to each organism each at four pH values (6.0, 6.5, 7.0, 7.5) are measured at three temperatures (23° C., 30° C., 37° C.). Fortunately, combinations of near optimal growth conditions have been found so that the same pH of 7.0±0.1 could be used for all four organisms that are listed below:
Compositions of growth media are listed below for one liter of medium. pH is adjusted to 7.0±0.1 both before and after heat sterilization. Similar growth results are obtained when the added cationic buffer is added before heat-sterilization and after heat-sterilization via sterile filtration. Several useful growth media containing methanol are known for Pichia, but ME broth is equally good under the current conditions, and then evaporation of methanol is not a problem. Amounts below are given as g/L in sterilized growth medium.
(§2) The bacterial and yeast strains are grown up and counted several times in each respective growth medium obtain fresh, stable, reproducible cultures of known density as a function of time. Microbial counting is carried out in the usual fashion by using serial dilutions followed by plate counting. Each culture is diluted and plated three times, and the values are averaged. When a culture reaches the proper microbial density (cfu/mL), two 96-well plates are quickly loaded as described above, and plate reading is started using two matched plate readers.

[5] = tested on: Pseudomonas fluorescens ATCC 19020; assay: Microbial growth-inhibition assay, P. fluorescens; assay type: cell-based; conditions: 30° C., PM broth
Protocol: as §1, with “For each medium, six bottles of sterile media are prepared, one for each buffer concentration (0, 30, 60, 120, 270, 600 mM) so that when each is diluted in the plate, the desired concentrations will be obtained. The media components (see below), added buffer and water are mixed, and the pH is adjusted to the proper value.” left out
Based upon prior experience with these organisms, a series of microbial growth measurements are carried out to determine optimal growth conditions. Four different media compositions unique to each organism each at four pH values (6.0, 6.5, 7.0, 7.5) are measured at three temperatures (23° C., 30° C., 37° C.). […]
as §2, with “Microbial counting is carried out in the usual fashion by using serial dilutions followed by plate counting. Each culture is diluted and plated three times, and the values are averaged.” left out

[6] = Change in pKa of amine caused by proximal quaternary ammonium group; assay type: physicochemical
Excerpt: The presence of a quaternary ammonium (quat) group in a molecule that also contains an amine group will reduce the pKa of the amine as measured in aqueous media and polar nonaqueous media. […] All three effects as described will generally lead to some reduction of observed pKa in the molecule of interest. […] The amount of reduction in pKa depends on (1) the number of quat groups, (2) the distance of the quat group(s) from the amine and (3) the rigidity of the molecule that holds the quat group and amine in more fixed position with regard to each other.

[7] = HEPES, buffer combinations table
[8] = relative to trimethylamine, water at 25° C., μ=0.1, approximate numbers
[9] = single value, read-out: Est. pKa

## C[N+](C)(C)CC(O)CC(=O)[O-] (centres unmarked) [Carnitine HCl]
[1]; aqueous solution of 10 mM buffer and 80 mM KCl, read-out: Meas. pKa
  pKa: 3.83

## OB(O)O [Boric Acid]
[2]
  pKa: 9

## C[N+](C)(C)CC(O)CNCCO.Cl.[Cl-] (centres unmarked) [Compound 78a, N-(3-trimethylammonium-2-hydroxypropyl)ethanolamine chloride hydrochloride]
[3]; single value
  Est. pKa: ~7.8

## O=S(=O)(O)CCN1CCN(CCO)CC1 [HEPES]
[2]; [7]
  pKa1: 3.0
  pKa2: 7.5

## CCN(CC)CC(O)C[N+](C)(C)C.[Cl-] (centres unmarked) [Compound 10, N-(2-hydroxy-3-trimethylammonium-propyl)diethylamine chloride]
[2]
  pKa quoted in comparison of buffers with similar pKa values: 8.5
[4]
  comparative growth behaviour between buffers: TAPS (8.4) is better than DEGA
[5]
  comparative growth of Pseudomonas: DEAGA and MEAGA are clearly better than DIMEGA and DEGA

## 1,1,5,9-tetramethyl-2-hydroxy-5,9-bis(2-sulfoethyl)-1,5,9-triazanonane di-inner salt [Compound 82]
[3]; wide-range buffer, higher pKa
  Est. pKa, second of two values: ~8.0
[3]; wide-range buffer, lower pKa
  Est. pKa, first of two values: ~6.5

## C[N+]12CCN(CC1)CC2 [N-Me-Diazabicyclo[2.2.2]octane^+]
[6]
  Change in pKa of Me2N—: ~−6.7 log K units

## CN(C)CCC[N+](C)(C)C.Cl.[Cl-] [Compound 29a, (3-trimethylammoniumpropyl) dimethylamine chloride hydrochloride]
[3]; single value
  Est. pKa: ~8.1

## CN(C)CCCCCC[N+](C)(C)C [n = 6 (—CH2(CH2)4CH2—)]
[6]; [8]
  Change in pKa of Me2N—: ~−0.3 log K units

## CN(CCC[N+](C)(CCS(=O)(=O)[O-])CC(O)C[N+](C)(C)Cc1ccccc1)CCS(=O)(=O)[O-] (centres unmarked) [Compound 81, 1-benzyl-1,1,5,9-tetramethyl-3-hydroxy-5,9-bis(2-sulfoethyl)-1,5,9-triazanonane, di-inner salt]
[3]; single value
  Est. pKa: ~6.1

## CCN(CC)CCC[N+](C)(CC)CC [Compound 30a]
[3]; [9]
  pKa: ~8.7

## Br.CN(C)C(=NCCC[N+](C)(C)C)N(C)C.[Br-] [Compound 76, 2-(3-trimethylammoniumpropyl)-1,1,3,3-tetramethylguanidine bromide hydrobromide]
[3]; single value
  Est. pKa: ~12.9

## CN(CCO)CC[N+](C)(C)CCO [Compound 20a]
[3]; [9]
  pKa: ~5.2

## CN1CCC[N+](C)(C)CC1 [N,N′,N′-Me3-Homopiperazinium^+]
[6]; [8]
  Change in pKa of Me2N—: ~−3.6 log K units

## Br.CCOP(=O)(CCC[N+](C)(C)CCCN(C)C)OCC.[Br-] [Compound 79a, N,N,N′,N′-tetramethyl-N-(3-diethylphosphonopropyl)-1,3-propanediamine diethyl ester bromide•hydrobromide]
[3]; single value
  Est. pKa: ~8.1

## CN1CCN(C)C1=NCC[N+](C)(C)C.Cl.[Cl-] [Compound 77, N(2-(1′,3′-dimethylimidazoline-2′-iminato)ethyl)trimethyl-ammonium chloride hydrochloride]
[3]; single value
  Est. pKa: ~11.1

## CN(C)CC[N+](C)(C)C [n = 2 (—CH2CH2—)]
[6]; [8]
  Change in pKa of Me2N—: ~−3.7 log K units

## CN(C)CC(O)C[N+](C)(C)C (centres unmarked) [n = 3 (—CH2CH(OH)CH2—)]
[6]; [8]
  Change in pKa of Me2N—: ~−1.9 log K units

## CCN(C(C)C)C1CC[N+](CC)(CC)CC1 [Compound 74a]
[3]; [9]
  pKa: ~7.4

## CN(C)CC(O)C[N+](C)(CCCN(C)CCS(=O)(=O)O)CCS(=O)(=O)[O-] (centres unmarked) [Compound 59]
[3]; wide-range buffer, higher pKa, read-out: Est. pKa, second of two values
  pKa: ~8
[3]; wide-range buffer, lower pKa, read-out: Est. pKa, first of two values
  pKa: ~6.5

## CN(C)CCC[N+](C)(C)CCCS(=O)(=O)[O-] [Compound 57, N,N,N′,N′-tetramethyl-N-(3-sulfopropyl)-1,3-propanediamine Inner salt]
[3]; single value
  Est. pKa: ~8.1

## O=S(=O)(O)CCCN1CCOCC1 [MOPS]
[1]
  Meas. pKa: 7.099

## CN1CC[N+](C)(C)CC1 [N,N′,N′-Me3-Piperazinium^+]
[6]; [8]
  Change in pKa of Me2N—: ~−5.5 log K units

## CN(C)CCC[N+](C)(C)CCCP(=O)([O-])O [Compound 60, N,N,N′,N′-tetramethyl-N-(3-phosphonopropyl)-1,3-propanediammonium di-Inner salt]
[3]; wide-range buffer, higher pKa
  Est. pKa, second of two values: ~8.2
[3]; wide-range buffer, lower pKa
  Est. pKa, first of two values: ~6.8

## COCC(=O)O [Methoxyacetic Acid]
[2]
  pKa: 3.3

## C[N+](C)(C)CC(O)CNC(CO)(CO)CO (centres unmarked) [Compound 19a]
[3]; [9]
  pKa: ~5.8

## CN(C)C[N+](C)(C)C [n = 1* (—CH2—)]
[6]
  hydrolytic stability: Limited hydrolytic stability
[6]; [8]
  Change in pKa of Me2N—: ~−10.5 log K units

## CN(CCCS(=O)(=O)O)CC[N+](C)(C)CCCS(=O)(=O)[O-] [Compound 66, N,N′,N′-trimethyl-N,N′-bis(3-sulfopropyl)ethylenediammonium di-inner salt]
[3]; single value
  Est. pKa: ~5.5

## CN(C)CCCCC[N+](C)(C)C [n = 5 (—CH2(CH2)3CH2—)]
[6]; [8]
  Change in pKa of Me2N—: ~−0.5 log K units

## CN(C)CCCC[N+](C)(C)C [n = 4 (—CH2(CH2)2CH2—)]
[6]; [8]
  Change in pKa of Me2N—: ~−0.9 log K units

## O=S(=O)(O)CCCNC(CO)(CO)CO [TAPS]
[1]
  Meas. pKa: 8.410
[2]
  pKa quoted in comparison of buffers with similar pKa values: 8.4
[4]
  comparative growth behaviour between buffers: consistently the best of all eight buffers tested; also recorded: is better than DEGA
  order of growth inhibition at higher concentrations: TRIS>MES>TAPS

## C[N+](C)(C)CC(O)CN(CCO)CCCS(=O)(=O)[O-] (centres unmarked) [Compound 51, N-(2-hydroxy-3-trimethylammoniumpropyl)-N-(2-hydroxyethyl)homotaurine inner salt]
[3]; single value
  Est. pKa: ~6.4

## CN(C)CCC[N+](C)(C)C [n = 3 (—CH2CH2CH2—)]
[6]; [8]
  Change in pKa of Me2N—: ~−1.7 log K units

## O=S(=O)(O)CCNC1CCCCC1 [CHES (H+)]
[2]
  pKa of buffer in cationic/anionic buffer combinations: 9.4

## CN(C)CC=CC[N+](C)(C)C [n = 4 (trans —CH2CH═CHCH2—)]
[6]; [8]
  Change in pKa of Me2N—: ~−1.3 log K units

## O=S(=O)(O)CCN1CCOCC1 [MES]
[4]
  comparative growth behaviour between buffers: about the same behavior

## CN(C)CC(O)C(O)C[N+](C)(C)C (centres unmarked) [n = 4 (—CH2CH(OH)CH(OH)CH2—)]
[6]; [8]
  Change in pKa of Me2N—: ~−1.1 log K units

## O=S(=O)(O)CCNC(CO)(CO)CO [TES (H+)]
[2]
  pKa of buffer in cationic/anionic buffer combinations: 7.5

## CCN(CC)CCCCCC[N+](C)(CC)CC [Compound 34a]
[3]; [9]
  pKa: ~10.1

## CN(C)CC(O)C[N+](C)(C)C.[Cl-] (centres unmarked) [Compound 8]
[2]
  pKa quoted in comparison of buffers with similar pKa values: 7.9
[4]
  comparative growth behaviour between buffers: is better than TRIS
[5]
  comparative growth of Pseudomonas: DEAGA and MEAGA are clearly better than DIMEGA and DEGA

## NC(CO)(CO)CO [TRIS]
[4]
  comparative growth behaviour between buffers: DIMEGA (7.9) is better than TRIS
  order of growth inhibition at higher concentrations: TRIS>MES>TAPS
[5]
  comparative growth of Pseudomonas: all 5 cationic buffers being better than TRIS

## CCN(CC)CC[N+](C)(CC)CC [Compound 28a]
[3]; [9]
  pKa: ~6.7
